The values below come from paper PMC7695835, “Pharmacological characterisation of novel adenosine A3 receptor antagonists” (Scientific Reports, 2020).

One experiment concerns the target T1, A2AR (Homo sapiens, UniProt P29274).
T1 construct: expressed in transfected cells; host or cells: CHO cells, membrane preparation
Details: method as in Lagarias et al.[19]. Particulars: 10 nM [3H]NECA; ref Lagarias et al.[19]; read-out: Radioligand binding Ki A2AR; cited from earlier work.

Experiment [1] concerns the target T2, A3R (Homo sapiens, UniProt P0DMS8).
T2 sequence (P0DMS8 1-318): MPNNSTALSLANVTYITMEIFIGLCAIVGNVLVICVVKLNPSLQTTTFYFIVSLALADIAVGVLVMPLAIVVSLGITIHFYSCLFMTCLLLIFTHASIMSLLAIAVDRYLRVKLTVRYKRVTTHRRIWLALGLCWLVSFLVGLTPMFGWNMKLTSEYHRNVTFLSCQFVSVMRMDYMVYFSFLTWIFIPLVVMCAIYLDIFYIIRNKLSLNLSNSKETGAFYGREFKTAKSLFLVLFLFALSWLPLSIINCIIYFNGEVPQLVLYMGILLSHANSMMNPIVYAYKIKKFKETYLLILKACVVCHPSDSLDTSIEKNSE
Particulars: 1 nM [3H]HEMADO; ref Lagarias et al.[19]; read-out: Radioligand binding Ki A3R; cited from earlier work.

The target in another experiment is T3, A1R (Homo sapiens, UniProt P30542).
T3 construct: expressed in transfected cells
T3 sequence (P30542 1-326): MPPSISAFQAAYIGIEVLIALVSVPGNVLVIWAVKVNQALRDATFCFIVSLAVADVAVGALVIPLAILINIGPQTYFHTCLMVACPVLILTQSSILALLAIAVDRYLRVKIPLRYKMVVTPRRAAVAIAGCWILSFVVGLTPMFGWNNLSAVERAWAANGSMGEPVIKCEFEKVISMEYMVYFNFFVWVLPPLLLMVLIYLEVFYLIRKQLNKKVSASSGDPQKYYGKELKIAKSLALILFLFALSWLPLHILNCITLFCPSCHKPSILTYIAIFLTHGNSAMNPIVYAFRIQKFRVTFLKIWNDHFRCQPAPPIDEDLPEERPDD
Details: method as in Lagarias et al.[19]. Particulars: 1 nM [3H]CCPA; ref Lagarias et al.[19]; read-out: Radioligand binding Ki A1R; cited from earlier work.

In experiment [2] the target is T2, A3R. Particulars: for cAMP accumulation Mean: 10 μM forskolin + NECA IC80 (3.16 nM) + 1 μM compound, mean ± SEM, n = 3; for cAMP accumulation Mean difference between 'NECA' and compound: 10 μM forskolin + NECA IC80 + 1 μM compound; for outcome of cAMP-based screen: 1 μM compound.
Experiment [3] has as its target T2, A3R. Kind of experiment: NECA stimulated cAMP inhibition in A3R Flp-In CHO cells. Particulars: for Span: difference between Emin and basal; for Emin: lower plateau of NECA curve; for effect on NECA potency / antagonism: 1 μM compound; for effect on NECA potency / antagonism / effect on NECA potency: preliminary data; for Basal: upper plateau of NECA curve; for effect on NECA potency: 10 μM compound. It counts as cell-based.

Setting [4] is: 1 µM compound + 10 µM forskolin only.
[5] abbreviates: 10 µM compound + 10 µM forskolin only.

T1 sequence (P29274 whole entry): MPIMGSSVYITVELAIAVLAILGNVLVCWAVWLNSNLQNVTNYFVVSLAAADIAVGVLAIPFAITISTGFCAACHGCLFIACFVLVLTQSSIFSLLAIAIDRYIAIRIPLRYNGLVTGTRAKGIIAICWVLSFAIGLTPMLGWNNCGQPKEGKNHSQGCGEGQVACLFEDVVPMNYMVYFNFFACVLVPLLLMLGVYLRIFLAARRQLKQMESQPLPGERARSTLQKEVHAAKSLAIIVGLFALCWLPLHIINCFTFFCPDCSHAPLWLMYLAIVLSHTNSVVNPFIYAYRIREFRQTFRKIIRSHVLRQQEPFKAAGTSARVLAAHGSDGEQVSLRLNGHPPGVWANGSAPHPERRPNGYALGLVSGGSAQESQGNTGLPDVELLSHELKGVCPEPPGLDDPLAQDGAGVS

In the case of `CCOC(=O)CC(=O)Nc1ccsc1C(N)=O` [Compound K28], the Ki at A2AR was 30 µM; at A3R [1], > 100 µM; on A1R, 18 µM. In addition, the “cAMP accumulation Mean” value on A3R [2] turned out to be 64.14 ±1.73 %10 μM forskolin response. The “cAMP accumulation Mean difference between 'NECA' and compound” value on A3R [2] is recorded as -3.82 %10 μM forskolin response.
For the molecule `Nc1sccc1C(=O)NCCc1ccccc1` [Compound K12], the inhibition constant Ki is > 60 µM at A2AR, 37.1 µM at A3R [1] and > 100 µM at A1R. The “cAMP accumulation Mean” value at A3R [2] turned out to be 59.66 ±0.98 %10 μM forskolin response. Besides, the “cAMP accumulation Mean difference between 'NECA' and compound” value at A3R [2] is listed as 0.66 %10 μM forskolin response.
On to `Cc1cccc(/C(N)=N/OC(=O)c2c(-c3ccccc3Cl)noc2C)c1` [Compound K15], for which the Ki on A2AR and on A1R was > 100 µM each time.
Turning to `Cc1onc(-c2ccccc2Cl)c1C(=O)O/N=C(\N)c1ccncc1` [Compound K11], the figures for the Ki on A2AR and on A1R were 30 µM and > 60 µM, respectively.
As to `NC(=NOC(=O)c1csnn1)c1ccc(-c2csnn2)cc1` [Compound K3], the inhibitory constant (Ki) at A2AR, on A3R [1] and at A1R was > 100 µM in each case. For the same molecule, the “cAMP accumulation Mean” value at A3R [2] was 63.37 ±2.66 %10 μM forskolin response. Besides, the “cAMP accumulation Mean difference between 'NECA' and compound” value on A3R [2] is reported as -3.05 %10 μM forskolin response.
For the molecule `CCC(C)CC(=O)Nc1ccsc1C(N)=O` (stereo not drawn) [Compound K35], the values for the Ki at A2AR, at A3R [1] and on A1R were > 30 µM, 27.4 µM and 7.33 µM, respectively. On A3R [2], the “cAMP accumulation Mean” value was determined as 71.56 ±3.54 %10 μM forskolin response. Also, the “cAMP accumulation Mean difference between 'NECA' and compound” value at A3R [2] is recorded as -11.24 %10 μM forskolin response.
As to `COc1cccc(C=NNC(=O)c2cc(-c3ccccc3)sc2N)c1` [Compound K21], at A3R [3] (setting [4]), the “True Basal” value is 101.6 ±5.1. Further, on A3R [3] (1 µM compound), the Span stood at 119.4 ±9.4; the Emin is 2.0 ±7.6 % 10 µM forskolin response relative to NECA response; the Basal was 121.5 ±6.1 % 10 µM forskolin inhibition, relative to NECA. Besides, at A3R [3], the “effect on NECA potency / antagonism” value is on record as “no effect” and the “effect on NECA potency” value is “reduce the NECA potency”. Further, the “True Basal” value on A3R [3] (setting [5]) is 118.6 ±4.8. Further, on A3R [3] (10 µM compound), the Span amounted to 104.6 ±7.7; the Emin is given as 30.1 ±6.8 % 10 µM forskolin response relative to NECA response; the Basal is reported as 134.7 ±4.3 % 10 µM forskolin inhibition, relative to NECA. In addition, the Ki at A2AR is 3.93 µM. Besides, the Ki on A3R [1] is 5.77 µM. Also, the Ki at A1R was > 100 µM. Besides, on A3R [2], the “outcome of cAMP-based screen” value is reported as “no activity”; the “cAMP accumulation Mean” value is reported as 73.54 ±2.98 %10 μM forskolin response; the “cAMP accumulation Mean difference between 'NECA' and compound” value is recorded as -13.22 %10 μM forskolin response.
On to `COc1ccc(CCNC(=O)c2c(N)sc3c2CCC3)cc1OC` [Compound K13], for which the figures for the Ki on A2AR, at A3R [1] and at A1R were > 60 µM, 16.5 µM and > 30 µM, respectively. The “cAMP accumulation Mean” value on A3R [2] amounted to 56.25 ±1.44 %10 μM forskolin response. Besides, on A3R [2], the “cAMP accumulation Mean difference between 'NECA' and compound” value amounted to 4.07 %10 μM forskolin response.
Take `COc1ccc(CSC(=N)Nc2ccccc2Cl)cc1.Cl` [Compound K2]: the Ki is 61.3 µM at A2AR, 16.6 µM on A3R [1] and > 100 µM on A1R. Besides, the “cAMP accumulation Mean” value at A3R [2] is 68.28 ±2.94 %10 μM forskolin response. For the same molecule, on A3R [2], the “cAMP accumulation Mean difference between 'NECA' and compound” value is on record as -7.96 %10 μM forskolin response.
As for `Nc1sc(-c2ccccc2)cc1C(=O)NN=Cc1ccccc1` [Compound K22], on A3R [3] (setting [4]), the “True Basal” value came out at 101.9 ±8.4. For the same molecule, at A3R [3] (1 µM compound), the Span came to 120.9 ±8.8; the Emin is reported as 0.4 ±7.1 % 10 µM forskolin response relative to NECA response; the Basal is given as 121.3 ±5.8 % 10 µM forskolin inhibition, relative to NECA. Further, at A3R [3], the “effect on NECA potency / antagonism” value was “no effect” and the “effect on NECA potency” value is given as “reduce the NECA potency”. For the same molecule, the “True Basal” value at A3R [3] (setting [5]) was 124.5 ±8.2. In addition, at A3R [3] (10 µM compound), the Span came out at 97.5 ±8.0; the Emin is recorded as 41.6 ±7.1 % 10 µM forskolin response relative to NECA response; the Basal is recorded as 139.1 ±4.2 % 10 µM forskolin inhibition, relative to NECA. Further, the Ki on A2AR is 4.59 µM. On A3R [1], the Ki was 5.16 µM. Moreover, on A1R, the Ki was 15.2 µM. For the same molecule, at A3R [2], the “outcome of cAMP-based screen” value was “no activity”; the “cAMP accumulation Mean” value came out at 70.56 ±3.64 %10 μM forskolin response; the “cAMP accumulation Mean difference between 'NECA' and compound” value is listed as -10.24 %10 μM forskolin response.
Take `Cc1nc(C(N)=NOC(=O)c2c(-c3ccccc3)noc2C)cs1` [Compound K5]: the inhibition constant (Ki) was 21.8 µM at A2AR and > 100 µM at A1R.
As to `NNC(=O)c1sc(-c2ccccc2)cc1N` [Compound K16], the Ki at A2AR is 31.7 µM; on A3R [1], 19.7 µM; at A1R it was > 30 µM. Further, the “cAMP accumulation Mean” value on A3R [2] is given as 51.51 ±4.91 %10 μM forskolin response. Moreover, the “cAMP accumulation Mean difference between 'NECA' and compound” value at A3R [2] stood at 8.81 %10 μM forskolin response.
`COc1ccccc1N=C(N)SCc1ccccc1` [Compound K19]: the inhibition constant Ki at A2AR, at A3R [1] and on A1R was > 100 µM each time. On A3R [2], the “cAMP accumulation Mean” value turned out to be 64.58 ±4.94 %10 μM forskolin response. In addition, the “cAMP accumulation Mean difference between 'NECA' and compound” value at A3R [2] is -4.26 %10 μM forskolin response.
With `Cc1onc(-c2ccccc2Cl)c1C(=O)O/N=C(\N)c1ccc(I)cc1` [Compound K9], the inhibition constant (Ki) is > 100 µM at A2AR and 6.91 µM at A1R.
Take `CC(C)(C)c1ccc(/C(N)=N/OC(=O)c2cnn(-c3ccccc3)c2C(F)(F)F)cc1` [Compound K24]: at A3R [3] (setting [4]), the “True Basal” value is 103.6 ±7.7. In addition, on A3R [3] (1 µM compound), the Span is given as 103.7 ±7.9; the Emin is listed as 5.9 ±6.5 % 10 µM forskolin response relative to NECA response; the Basal is listed as 109.5 ±4.9 % 10 µM forskolin inhibition, relative to NECA. Also, at A3R [3], the “effect on NECA potency / antagonism” value is “no effect” and the “effect on NECA potency” value is listed as “reduce the NECA potency”. The “True Basal” value on A3R [3] (setting [5]) is reported as 117.7 ±0.9. At A3R [3] (10 µM compound), the Span was 107.4 ±5.7; the Emin is 23.4 ±4.5 % 10 µM forskolin response relative to NECA response; the Basal was 130.8 ±3.3 % 10 µM forskolin inhibition, relative to NECA. Besides, the Ki on A2AR was > 100 µM. Further, the Ki at A3R [1] is 5.39 µM. Moreover, the inhibition constant (Ki) on A1R was 7.48 µM. At A3R [2], the “outcome of cAMP-based screen” value was “no activity”; the “cAMP accumulation Mean” value is 51.39 ±3.11 %10 μM forskolin response; the “cAMP accumulation Mean difference between 'NECA' and compound” value is 8.93 %10 μM forskolin response.
For `O=C(Nc1ccc(OC(F)(F)F)cc1)Nc1cc(-c2cccs2)n[nH]1` [Compound K6], the Ki on A2AR was > 100 µM; at A3R [1], 30.6 µM; at A1R it was > 100 µM. In addition, the “cAMP accumulation Mean” value on A3R [2] is given as 64.01 ±5.22 %10 μM forskolin response. In addition, the “cAMP accumulation Mean difference between 'NECA' and compound” value at A3R [2] was -3.69 %10 μM forskolin response.
Take `NC(=NNC(=O)Nc1ccc(Cl)cc1)c1ccc(C(F)(F)F)cn1` [Compound K4]: the inhibition constant (Ki) on A2AR, on A3R [1] and at A1R was > 100 µM each time. Further, the “cAMP accumulation Mean” value at A3R [2] was determined as 59.06 ±0.13 %10 μM forskolin response. Further, the “cAMP accumulation Mean difference between 'NECA' and compound” value at A3R [2] amounted to 1.26 %10 μM forskolin response.
With `COc1ccc(CCNC(=O)c2c(N)sc3c2CCCC3)cc1OC` [Compound K14], the Ki at A2AR was > 60 µM; on A3R [1] it was 14.8 µM; on A1R, > 30 µM. For the same molecule, on A3R [2], the “cAMP accumulation Mean” value is recorded as 61.09 ±3.04 %10 μM forskolin response. Also, the “cAMP accumulation Mean difference between 'NECA' and compound” value at A3R [2] is recorded as -0.77 %10 μM forskolin response.
